Where a name gives a salt, the structure may show the parent alone. Read-outs that look alike come from different tables or passages of the source. One block for each compound: values may come before it.
Legend:
[1] = format: physicochemical; conditions: for RCP % t = 0 h: ^177Lu-A (5.28 mCi avg) prepared in presence of stabilizer 3.33 mg/mL; for RCP (%) t = 72 h: ^177Lu-A prepared and stored in presence of stabilizer 3.33 mg/mL, room temperature
Experimental: 10 mg/mL solutions of thiamine hydrochloride and L-glutathione were prepared by disserving them in water. 10 mg/mL solutions of 3-hydroxycinnamic acid, 4-hydroxyantipyrine and acetylsalicylic acid were prepared by dissolving them in 50% EtOH/water. 10 mg/mL solutions of 2-hydroxybenzothiazole and 2,1,3-benzothiadiazole were prepared by dissolving them in EtOH.

[2] = format: physicochemical; conditions: ^177Lu-A (3.6 mCi) prepared in presence of 2.5 mg/mL stabilizer
Experimental: To lead-shielded 4-mL vials was added 200 μL of the individual NaOAc-stabilizer solutions, 3.58 mCi ^177LuCl3 (avg) and 5.08 μg COMPOUND A (dissolved in water). The ratio of COMPOUND A to Lutetium was 3:1 for all samples. The reaction mixtures were heated to 100° C. for 5 minutes, then cooled, treated with Na2EDTA.2H2O, subdivided and stored as described in Example 9. The radiochemical purity (RCP) percentage data obtained are listed Table 12.

[3] = format: physicochemical; conditions: ^177Lu-A (2.7-3.7 mCi) prepared in presence of 1 mg/mL stabilizer; for RCP % t = 24 h (frozen): 24 h frozen (−10° C.)
Experimental: The injection volume was 10 μL.
Each individual stabilizer was prepared at a concentration of 1 mg/mL in sodium acetate (NaOAc) buffer (0.2 M, pH 4.8). […] The reaction mixture was heated to 100° C. for 5 minutes, and then cooled for 5 minutes in an ambient-temperature water hath. To each sample, 10 μL of 2% Na2EDTA.2H2in water was added, and then each was divided into two 100-μL aliquots. One aliquot was analyzed by HPLC (Method 5) and then stored at room temperature in a sealed lead container for 24 hours. The other aliquot was stored frozen (−10° C.) for 24 hours. Each sample was analyzed at t=24 h.

[4] = format: physicochemical; conditions: for Replicate 1 RCP % t = 0 h: ^177Lu-A (3.55 mCi avg) prepared in presence of 5 mg/mL stabilizer, HPLC Method 1, t = 0 h; for Replicate 2 RCP % t = 0 h / Replicate 2 RCP % t = 24 h: ^177Lu-A (4.37 mCi avg) prepared in presence of 5 mg/mL stabilizer; for Replicate 2 RCP % t = 0 h: HPLC Method 2, t = 0 h; for Replicate 2 RCP % t = 24 h: HPLC Method 2, t = 24 h
Experimental: (§1) The injection volume was 20 μL.
Each stabilizer was prepared at a concentration of 5 mg/mL in sodium acetate (NaOAc) buffer (0.2 M, pH 4.8). To lead-shielded 4-mL vials were added 200 μL of the individual stabilizer solutions, 3.55 mCi ^177LuCl3 (avg) and 5.44 μg COMPOUND A (dissolved in water). A second set of replicates of each sample was prepared, using the individual stabilizers. To these was added 4.37 mCi ^177LuCl3 (avg) and 6.7 μg (avg) COMPOUND A (dissolved in water). The ratio of COMPOUND A to lutetium was 3:1 for all samples. The reaction mixture was heated to 100° C. for 5 minutes then cooled for 5 minutes in an ambient-temperature water bath. To each sample, 10 μL of 2% Na2EDTA.2H2O in water was added, then each was analyzed by HPLC (Method 1 for the first set of replicates; Method 2 for the second set of replicates). The second set of replicates were stored and analyzed again at t=24 h.

[5] = Radiostability (RCP, Met═O by HPLC) of preformed ^177Lu-A with individual amino acids added (Example 1); format: physicochemical; conditions: amino acid 6.6 mg/mL, room temperature; for 0-1 h RCP (%): ^177Lu-A ~20 mCi/mL (3.5 mCi total); for 24-h RCP (%) / 48-h RCP (%): ^177Lu-A ~20 mCi/mL
Experimental: as §1
Solutions of the individual amino acids L-Methionine, L-Selenomethionine, L-cysteine HCl.H2O, L-Tryptophan, L-Histidine, and Glycine were prepared at a concentration of 10 mg/mL in 10 mM Dulbecco's phosphate-buffered saline, pH 7.0 [PBS].
The final radioactive concentration of each sample was ˜20 mCi/mL.

[6] = format: physicochemical
Experimental: The reaction vial was crimp-sealed and heated at 100° C. for 5 min. […] The sample was stored in an autosampler in which the temperature is ˜6° C. […] than room temperature, and analyzed by RP-HPLC for up to 24 hours.
L-Selenomethionine: ^177Lu-B was prepared, diluted and analyzed as described above, but 5 mg of L-Se-Met was used in place of PDTC, the heating time was 10 minutes, and the quantity of radioactivity used was 52 mCi.
L-cysteine ethyl ester, HCl: ^177Lu-B was prepared, diluted and analyzed as described above, but 5 mg of L-CEE, hydrochloride salt was used in place of PDTC, the heating time was 5 minutes and the quantity of radioactivity used was 50 mCi.
L-cysteine HCl.H2O: ^177Lu-B was prepared, diluted and analyzed as described above, but 5 mg of L-Cys HCl.H2O was used in place of PDTC, the heating time was 8 minutes and the quantity of radioactivity used was 53 mCi.

[7] = format: physicochemical; conditions: for RCP % t = 0 h: ^177Lu-A (5.25 mCi avg) prepared in presence of stabilizer ~3.33 mg/mL
Experimental: as §1
Ethionamide was prepared at a 10 mg/mL concentration by dissolving it in EtOH. […] Another sample was prepared to which was added 100 μL of ethanol only (no stabilizer), for use as a control sample. […] The reaction mixture was heated to 100° C. for 5 minutes then cooled for 5 minutes in an ambient-temperature water bath. To each sample, 10 μL of 2% Na2EDTA.2H2O in water was added, and then each was analysed by HPLC (Method 2) and stored at room temperature for up to 96 hours.

[8] = format: physicochemical; conditions: ^177Lu-A 13.9 mCi/mL, stabilizer 5 mg/mL added after complex preparation, room temperature
Experimental: as §1
Compounds containing the —C═S moiety [dithiocarbamates and ethionamide] were examined in this study.
Each individual stabilizer was prepared at a concentration of 10 mg/mL in water. Ethionamide was dissolved in EtOH. […] The reaction mixture was heated to 100° C. for 5 minutes, then cooled for 5 minutes in an ambient-temperature water bath. […] To an aliquot, 100 μL of one of the stabilizer solutions (1 mg of stabilizer) was added. Each aliquot was analyzed (t=0 h) by HPLC (Method 2) and stored at room temperature for 48 hours. All samples were analyzed again at t=24 h and 48 h.

[9] = ^177Lu-A prepared in presence of stabilizer ~3.33 mg/mL, room temperature

RCP % t = 0 h [1]: 98.6%
RCP (%) t = 72 h [1]: 3.1%
Structure (SMILES): c1ccc2nsnc2c1 [2,1,3-Benzothiadiazole]

Structure (SMILES): Oc1nc2ccccc2s1 [2-Hydroxybenzothiazole]
RCP % t = 0 h [1]: 96.2%
RCP (%) t = 72 h [1]: 9.6%

RCP % t = 0 h [1]: 96.6%
RCP (%) t = 72 h [1]: 0%
Structure (SMILES): O=C(O)/C=C/c1cccc(O)c1 [3-Hydroxycinnamic acid]

Structure (SMILES): Cc1c(O)c(=O)n(-c2ccccc2)n1C [4-Hydroxyantipyrine]
RCP % t = 0 h [1]: 99.9%
RCP (%) t = 72 h [1]: 0%

RCP % t = 0 h [1]: 73.0%
RCP (%) t = 72 h [1]: 0%
Structure (SMILES): CC(=O)Oc1ccccc1C(=O)O [Acetylsalicylic acid, Acetylsalicyclic acid, reference compound]

RCP % t = 24 h (frozen) [2]: 78.4%
RCP % t = 24 h (room temp) [2]: 88.1%
RCP % t = 0 h [3]: 98.7%
Replicate 1 RCP % t = 0 h [4]: 87.6%
Replicate 2 RCP % t = 0 h [4]: 30.2%
Replicate 2 RCP % t = 24 h [4]: 24.5%
Structure (SMILES): O=C1O[C@H]([C@@H](O)CO)C([O-])=C1O.[Na+] [Ascorbic acid, Sodium L-ascorbate (Ascorbic acid)]

RCP % t = 24 h (frozen) [2]: 100%
RCP % t = 24 h (room temp) [2]: 99.6%
RCP % t = 0 h [2]: 100%
RCP % t = 24 h (frozen) [3]: 100%
RCP % t = 24 h (room temp) [3]: 100%
RCP % t = 0 h [3]: 100%
Replicate 1 RCP % t = 0 h [4]: 100%
Replicate 2 RCP % t = 0 h [4]: 97.6%
Replicate 2 RCP % t = 24 h [4]: 80.7%
Structure (SMILES): CSCC[C@@H](N)C(=O)O [D-Methionine]

RCP % t = 24 h (frozen) [2]: 82.8%
RCP % t = 24 h (room temp) [2]: 78.6%
RCP % t = 0 h [2]: 100%
RCP % t = 24 h (frozen) [3]: 84.3%
RCP % t = 24 h (room temp) [3]: 64.9%
RCP % t = 0 h [3]: 100%
Replicate 1 RCP % t = 0 h [4]: 93.9%
Replicate 2 RCP % t = 0 h [4]: 96.6%
Replicate 2 RCP % t = 24 h [4]: 75.2%
Structure (SMILES): O=C([O-])c1cc(O)ccc1O.[Na+] [Gentisic acid, 2,5-Dihydroxybenzoic acid sodium salt hydrate (Gentisic acid)]

0-1 h RCP (%) [5]: 96.4%
24-h RCP (%) [5]: 14.6%
48-h RCP (%) [5]: 0%
Structure (SMILES): NCC(=O)O [Glycine]

0-1 h RCP (%) [5]: 92.5%
24-h RCP (%) [5]: 4.6%
48-h RCP (%) [5]: 0%
Structure (SMILES): N[C@@H](Cc1c[nH]cn1)C(=O)O [Histidine, L-Histidine]

RCP % t = 0 h [1]: 91.1%
RCP (%) t = 72 h [1]: 0%
Structure (SMILES): N[C@@H](CCC(=O)N[C@@H](CS)C(=O)NCC(=O)O)C(=O)O [L-Glutathione, L-Glutathione, reduced]

RCP % t = 24 h (frozen) [2]: 51.0%
RCP % t = 24 h (room temp) [2]: 88.3%
RCP % t = 0 h [2]: 100%
RCP % t = 24 h (frozen) [3]: 82.1%
RCP % t = 24 h (room temp) [3]: 83.3%
RCP % t = 0 h [3]: 100%
Replicate 1 RCP % t = 0 h [4]: 93.3%
Replicate 2 RCP % t = 0 h [4]: 91.0%
Replicate 2 RCP % t = 24 h [4]: 67.4%
(% RCP) 3-h ([6]; ^177Lu-B (44-53 mCi) formulated with 5 mg stabilizing compound, 3 h): 94.7%
(% RCP) 6-h ([6]; ^177Lu-B (44-53 mCi) formulated with 5 mg stabilizing compound, 6 h): 87.3%
(% RCP) 9-h ([6]; ^177Lu-B (44-53 mCi) formulated with 5 mg stabilizing compound, 9 h): 79.4%
(% RCP) 12-h ([6]; ^177Lu-B (44-53 mCi) formulated with 5 mg stabilizing compound, 12 h): 73.6%
(% RCP) 24-h ([6]; ^177Lu-B (44-53 mCi) formulated with 5 mg stabilizing compound, 24 h): 50.9%
(% RCP) 0-h ([6]; ^177Lu-B (44-53 mCi) formulated with 5 mg stabilizing compound, diluted to ~2 mL, ~6° C. above room temperature, 0 h): 99.1%
RCP Drop over 24 hr ([6]; ^177Lu-B formulated with 5 mg stabilizing compound, 0 to 24 h): 48.2%
Structure (SMILES): N[C@@H](CS)C(=O)O [L-cysteine, L-cysteine hydrochloride monohydrate]

RCP % t = 0 h [7]: 52.8%
RCP % t = 24 h [7, 9]: 0%
RCP % t = 0 h [8]: 97.8%
RCP % t = 24 h [8]: 97.1%
RCP % t = 48 h [8]: 96.2%
Structure (SMILES): CCN(CC)C(=S)S [Sodium diethyldithiocarbamate trihydrate, Diethyldithiocarbamate sodium salt]

RCP % t = 0 h [1]: 97.0%
RCP (%) t = 72 h [1]: 0%
Structure (SMILES): Cc1ncc(C[n+]2csc(CCO)c2C)c(N)n1 [Thiamine hydrochloride, reference compound]

Structure (SMILES): S=c1[nH]c(=S)[nH]c(=S)[nH]1 [Trithiocyanuric acid trisodium salt nonahydrate]
RCP % t = 0 h [7]: 100%
RCP % t = 24 h [7, 9]: 100%
RCP % t = 96 h ([7]; ^177Lu-A prepared in presence of stabilizer ~3.33 mg/mL, room temperature, 96 h): 0%
RCP % t = 0 h [8]: 96.9%
RCP % t = 24 h [8]: 95.9%
RCP % t = 48 h [8]: 100%

0-1 h RCP (%) [5]: 95.5%
24-h RCP (%) [5]: 51.4%
48-h RCP (%) [5]: 18.2%
Structure (SMILES): N[C@@H](Cc1c[nH]c2ccccc12)C(=O)O [Tryptophan, L-Tryptophan]

From patent US20120065365A1, “Stable Radiopharmaceutical Compositions and Methods for Their Preparation” (BRACCO IMAGING S.P.A., priority 2003, published 2012)
